Test results as given in patent US20050019424A1, “Anti-angiogenesis combination therapies comprising pyridazine or pyridine derivatives” (priority 2001, published 2005).

Columns and labels:
CYP2C19 = CYP2C19 (Homo sapiens, UniProt P33261); experiment: biochemical
Protocol: (§1) The ability of the compounds described herein to inhibit cytochrome P450 activity was determined in vitro using cDNA-expressed human cytochrome P450 enzymes (Supersomes) obtained from GENTEST Corporation and various fluorescent probe substrates. Fluorometric Cytochrome P450 Inhibition assays were conducted in 96 well micotitre plates as described by GENTEST Corporation, Woburn Mass. […] Compounds were dissolved in 70% DMSO such that the concentration of DMSO in the assay was 0.7%. Varying concentrations of all test compounds (10 μM, 3 μM, 1 μM, 300 nM and 100 nM) were incubated with Supersomes individually expressing the five principal drug metabolizing cytochrome P450s, CYP1A2, 2C9, 2C19, 2D6, and 3A4 and their respective substrates. […] Incubations with known inhibitors of each P450 isoform were included as positive controls. Fluorescence per well was measured using a Spectramax Gemini XS (Molecular Devices) and IC50 values of the compounds tested were determined using the 5 point dose response. The sigmoidal dose response curves were generated by non linear regression using a four parameter logistic equation.

CYP2D6 = CYP2D6 (Homo sapiens, UniProt P10635); experiment: biochemical
Protocol: as §1

CYP3A4 = CYP3A4 (Homo sapiens, UniProt P08684); experiment: biochemical
Protocol: as §1

CYP1A2 = molecular target: T1, CYP1A2 (Homo sapiens, UniProt P05177); experiment: biochemical
T1 sequence (P05177 1-516): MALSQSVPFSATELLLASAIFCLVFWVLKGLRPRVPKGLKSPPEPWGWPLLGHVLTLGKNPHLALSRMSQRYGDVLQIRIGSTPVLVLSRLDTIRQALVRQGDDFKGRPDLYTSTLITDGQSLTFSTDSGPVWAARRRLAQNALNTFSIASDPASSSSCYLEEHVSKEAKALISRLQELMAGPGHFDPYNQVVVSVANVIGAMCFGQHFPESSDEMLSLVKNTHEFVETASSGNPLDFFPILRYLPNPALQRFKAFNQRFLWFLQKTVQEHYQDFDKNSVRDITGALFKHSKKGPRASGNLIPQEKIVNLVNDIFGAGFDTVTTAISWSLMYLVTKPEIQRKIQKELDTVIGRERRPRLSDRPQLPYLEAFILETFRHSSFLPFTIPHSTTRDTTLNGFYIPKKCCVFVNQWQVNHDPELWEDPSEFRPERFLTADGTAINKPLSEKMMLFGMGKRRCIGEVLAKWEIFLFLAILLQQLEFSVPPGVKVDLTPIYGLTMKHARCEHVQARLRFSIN
Protocol: as §1

CYP2C9 = molecular target: T2, CYP2C9 (Homo sapiens, UniProt P11712); experiment: Fluorometric cytochrome P450 inhibition assay, CYP2C9; assay type: in vitro ADME; details: cDNA-expressed human CYP2C9 Supersomes, substrate DBF, 5 point dose response; read-out: CYP2C9 Inh. IC50
T2 construct: purchased GENTEST Corporation P258
T2 sequence (P11712 whole entry): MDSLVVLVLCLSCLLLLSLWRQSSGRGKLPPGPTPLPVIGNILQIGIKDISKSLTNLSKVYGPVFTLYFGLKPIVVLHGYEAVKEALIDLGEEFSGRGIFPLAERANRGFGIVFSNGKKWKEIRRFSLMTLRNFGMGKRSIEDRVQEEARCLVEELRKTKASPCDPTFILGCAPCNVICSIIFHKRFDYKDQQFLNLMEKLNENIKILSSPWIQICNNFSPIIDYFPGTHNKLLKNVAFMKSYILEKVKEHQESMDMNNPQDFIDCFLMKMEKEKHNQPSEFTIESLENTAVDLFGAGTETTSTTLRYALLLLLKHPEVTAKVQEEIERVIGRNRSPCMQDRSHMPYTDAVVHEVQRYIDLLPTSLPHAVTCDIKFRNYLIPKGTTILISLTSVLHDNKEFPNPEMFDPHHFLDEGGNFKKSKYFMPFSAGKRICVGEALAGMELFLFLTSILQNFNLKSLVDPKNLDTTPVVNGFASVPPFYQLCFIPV
Protocol: The ability of the compounds described herein to inhibit cytochrome P450 activity was determined in vitro using cDNA-expressed human cytochrome P450 enzymes (Supersomes) obtained from GENTEST Corporation and various fluorescent probe substrates. Fluorometric Cytochrome P450 Inhibition assays were conducted in 96 well micotitre plates as described by GENTEST Corporation, Woburn Mass. […] Compounds were dissolved in 70% DMSO such that the concentration of DMSO in the assay was 0.7%. […] Incubations with known inhibitors of each P450 isoform were included as positive controls. Fluorescence per well was measured using a Spectramax Gemini XS (Molecular Devices) and IC50 values of the compounds tested were determined using the 5 point dose response. The sigmoidal dose response curves were generated by non linear regression using a four parameter logistic equation.

Sequence of CYP2C19 (P33261 whole entry): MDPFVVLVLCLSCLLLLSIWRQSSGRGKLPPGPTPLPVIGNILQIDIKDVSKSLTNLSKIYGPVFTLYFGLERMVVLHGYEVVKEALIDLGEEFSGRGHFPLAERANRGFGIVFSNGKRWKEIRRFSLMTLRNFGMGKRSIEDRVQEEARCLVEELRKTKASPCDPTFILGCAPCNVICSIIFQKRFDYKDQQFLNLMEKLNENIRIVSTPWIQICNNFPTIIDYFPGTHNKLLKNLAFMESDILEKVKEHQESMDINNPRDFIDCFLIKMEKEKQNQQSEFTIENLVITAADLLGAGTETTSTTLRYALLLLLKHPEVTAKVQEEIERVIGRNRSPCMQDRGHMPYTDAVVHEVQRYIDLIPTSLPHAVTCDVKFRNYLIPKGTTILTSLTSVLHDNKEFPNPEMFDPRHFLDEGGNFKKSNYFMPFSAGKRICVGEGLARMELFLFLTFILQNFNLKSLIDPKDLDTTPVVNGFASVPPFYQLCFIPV
Sequence of CYP3A4 (P08684 whole entry): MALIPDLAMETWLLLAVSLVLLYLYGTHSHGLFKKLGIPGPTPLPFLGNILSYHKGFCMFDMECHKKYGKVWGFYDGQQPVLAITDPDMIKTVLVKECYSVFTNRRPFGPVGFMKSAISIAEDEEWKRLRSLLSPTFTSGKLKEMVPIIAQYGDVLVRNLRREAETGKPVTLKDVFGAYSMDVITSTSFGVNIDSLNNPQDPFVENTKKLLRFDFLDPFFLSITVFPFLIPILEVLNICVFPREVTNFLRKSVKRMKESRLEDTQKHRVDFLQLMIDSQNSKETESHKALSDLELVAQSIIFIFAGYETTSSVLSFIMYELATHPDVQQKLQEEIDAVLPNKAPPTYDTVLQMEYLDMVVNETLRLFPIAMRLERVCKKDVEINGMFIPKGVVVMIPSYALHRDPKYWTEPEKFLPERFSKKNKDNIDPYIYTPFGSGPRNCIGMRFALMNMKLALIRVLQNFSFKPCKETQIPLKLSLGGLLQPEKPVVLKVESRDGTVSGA
Sequence of CYP2D6 (P10635 whole entry): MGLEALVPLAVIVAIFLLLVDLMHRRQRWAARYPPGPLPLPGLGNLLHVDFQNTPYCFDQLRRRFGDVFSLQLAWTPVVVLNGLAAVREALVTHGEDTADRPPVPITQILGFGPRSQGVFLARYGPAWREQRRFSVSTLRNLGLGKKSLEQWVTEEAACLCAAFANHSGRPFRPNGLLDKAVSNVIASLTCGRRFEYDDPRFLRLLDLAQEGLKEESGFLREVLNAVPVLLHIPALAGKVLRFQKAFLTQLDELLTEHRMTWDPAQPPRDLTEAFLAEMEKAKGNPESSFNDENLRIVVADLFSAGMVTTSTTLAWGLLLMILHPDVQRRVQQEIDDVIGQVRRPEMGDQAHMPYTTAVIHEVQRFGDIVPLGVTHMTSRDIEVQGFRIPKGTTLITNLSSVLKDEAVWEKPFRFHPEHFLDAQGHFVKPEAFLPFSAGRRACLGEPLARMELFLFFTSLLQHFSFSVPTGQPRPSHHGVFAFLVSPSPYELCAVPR

| SMILES | IC50 (CYP2C19) | IC50 (CYP2D6) | IC50 (CYP3A4) | IC50 (CYP1A2) | IC50 (CYP2C9) |
| --- | --- | --- | --- | --- | --- |
| NC(=O)c1cc(Cc2nnc(Nc3ccc(Cl)cc3)c3ccccc23)ccn1 | 15 µM | > 20 µM | 10 µM | > 20 µM | > 20 µM |
| CNC(=O)c1cc(Cc2nnc(Nc3ccc(Cl)cc3)c3ccccc23)ccn1 | 11 µM | > 20 µM | 2.2 µM | > 20 µM | 5.7 µM |
| NC(=O)c1cc(COc2nnc(Nc3ccc(Cl)cc3)c3ccccc23)ccn1 | 5.4 µM | 1.3 µM | 0.42 µM | 1.5 µM | 0.95 µM |
| CNC(=O)c1cc(COc2nnc(Nc3ccc(Cl)cc3)c3ccccc23)ccn1 | > 20 µM | > 20 µM | > 20 µM | > 20 µM | > 20 µM |
| Clc1ccc(NC2=NN=C(OCc3ccncc3)C3OC=CC23)cc1 (stereo not shown) | 1.7 µM | 0.78 µM | 0.39 µM | 0.66 µM | 0.68 µM |
| NC(=O)c1cc(COC2=NN=C(Nc3ccc(Cl)cc3)C3C=COC23)ccn1 (stereo not shown) | > 20 µM | > 20 µM | 2.1 µM | 17 µM | > 20 µM |
| CNC(=O)c1cc(COC2=NN=C(Nc3ccc(Cl)cc3)C3C=COC23)ccn1 (stereo not shown) | > 20 µM | > 20 µM | 19 µM | > 20 µM | > 20 µM |
| CN(C)C(=O)c1cc(COC2=NN=C(Nc3ccc(Cl)cc3)C3C=COC23)ccn1 (stereo not shown) | > 20 µM | > 20 µM | 11 µM | 3.5 µM | > 20 µM |
| O=C(NC1CC1)c1cc(COC2=NN=C(Nc3ccc(Cl)cc3)C3C=COC23)ccn1 (stereo not shown) | > 20 µM | > 20 µM | 3.3 µM | > 20 µM | > 20 µM |
| Clc1ccc(NC2=NN=C(OCc3ccncc3)C3SC=CC23)cc1 (stereo not shown) | 7.5 µM | 0.4 µM | 0.12 µM | 0.5 µM | 0.46 µM |
| NC(=O)c1cc(COC2=NN=C(Nc3ccc(Cl)cc3)C3C=CSC23)ccn1 (stereo not shown) | > 20 µM | 14 µM | 1 µM | 3.3 µM | 4.7 µM |
| CNC(=O)c1cc(COC2=NN=C(Nc3ccc(Cl)cc3)C3C=CSC23)ccn1 (stereo not shown) | > 20 µM | > 20 µM | > 20 µM | > 20 µM | > 20 µM |
| Clc1ccc(Nc2ncc(Cc3ccncc3)c3ccccc23)cc1 | 0.07 µM | 0.21 µM | 0.14 µM | 0.17 µM | 0.11 µM |
| NC(=O)c1cc(Cc2cnc(Nc3ccc(Cl)cc3)c3ccccc23)ccn1 | 1.2 µM | 15 µM | 1.2 µM | 3.3 µM | 1.9 µM |
| CNC(=O)c1cc(Cc2cnc(Nc3ccc(Cl)cc3)c3ccccc23)ccn1 | 0.85 µM | 10 µM | 1.3 µM | 3.8 µM | 1.6 µM |
| Clc1ccc(Nc2nnc(Nc3ccc4ncsc4c3)c3sccc23)cc1 | 9.9 µM | > 20 µM | > 20 µM | > 20 µM | 3.9 µM |
| CNC(=O)c1cc(COc2nnc(Nc3ccc(OC)cc3)c3ccoc23)ccn1 | > 20 µM | > 20 µM | 1.8 µM | 4.2 µM | > 20 µM |
| CNC(=O)c1cc(COc2nnc(Nc3ccc(F)cc3)c3ccoc23)ccn1 | – | > 20 µM | > 20 µM | > 20 µM | > 20 µM |
| CNC(=O)c1cc(COc2nnc(Nc3cccc(C)c3)c3ccsc23)ccn1 | – | > 20 µM | > 20 µM | > 20 µM | > 20 µM |
| CNC(=O)c1cc(COc2nnc(Nc3ccc4c(c3)CCC4)c3ccoc23)ccn1 | > 20 µM | > 20 µM | 0.48 µM | 4.5 µM | 4 µM |
| CNC(=O)c1cc(COc2nnc(Nc3ccc4c(c3)OCC4)c3ccoc23)ccn1 | > 20 µM | > 20 µM | 7.6 µM | 11 µM | > 20 µM |
| Clc1ccc(Nc2nnc(Cc3ccncc3)c3ccccc23)cc1 [WO 98/35958 (Example 4), reference compound] | 0.24 µM | 0.33 µM | – | 1.49 µM | 0.65 µM |
| Clc1ccc(Nc2nnc(OCc3ccncc3)c3ccccc23)cc1 [WO 98/35958 (Example 50), reference compound] | 0.79 µM | 0.33 µM | 0.07 µM | 0.24 µM | 0.29 µM |
